Reference: EP1086692A2, “Estrogen agonists and antagonists for multiple indications” (priority 1999, dated 2001)
Several values for one entry are separate records, joined by “and”; a condition that tells them apart may be missing. Equal entries are not always repeated.

Legend:
[1] = Binding of droloxifene and lasofoxifene to human plasma proteins; conditions: human, plasma
human plasma proteins [2] = test: as above; conditions: binding of the SERM itself, human plasma
human plasma proteins [3] = test: Binding of propranolol to human plasma proteins in the absence and presence of droloxifene or lasofoxifene (equilibrium dialysis, HPLC-MS); conditions: result in words; droloxifene 200 ng/ml, lasofoxifene 50 ng/ml
Description: (§1) The effect of droloxifene or lasofoxifene on plasma protein binding was assessed at […] concentrations of 2 and 10 µg/ml and propranolol concentrations of 50 and 500 ng/ml. The concentrations of droloxifene and lasofoxifene used were 200 and 50 ng/ml respectively.

[4] = as above; conditions: human, plasma
Description: as §1

Structure (SMILES)	fraction unbound [1]	bound to human plasma proteins (human plasma proteins [2])	effect on the protein binding of propranolol in human plasma (human plasma proteins [3])	fraction unbound [4]
CC/C(=C(/c1ccc(OCCN(C)C)cc1)c1cccc(O)c1)c1ccccc1 [droloxifene]	3e-05	99.997%	will not be altered	–
Oc1ccc2c(c1)CC[C@H](c1ccccc1)[C@@H]2c1ccc(OCCN2CCCC2)cc1 [lasofoxifene, (-) cis-6-phenyl-5[4-(2-pyrrolitin-1-yl-ehtoxy)-phenyl]-5,6,7,8-tetrahydronaphthalene-2-ol]	–	99.997% and 99.94%	will not be altered	–
CC(C)NCC(O)COc1cccc2ccccc12 (stereo not drawn) [propranolol, reference compound]	–	–	–	0.24
